In patent US11187705B2, “Method for labeling specifically living microorganisms comprising the use of modified monosaccharide compounds” (CENTRE NATIONAL DE LA RECHERCHE SCIENTIFIQUE (CNRS), priority 2015, dated 2021):

How the values were obtained:
Type in all cases: cell-based
[1] = test system: Neisseria meningitides; conditions: 10 mM, 24 hours; CIP 107858
[2] = test system: Neisseria gonorrhoeae; conditions: for labeling (fluorescence, metabolic incorporation of the chemical reporter): 10 mM, 24 hours, CIP 79.18T; for assimilation by the microorganism (in words): Neisseria gonorrhoeae
[3] = test system: Aspergillus niger; conditions: for labeling (fluorescence, metabolic incorporation of the chemical reporter): 10 mM, 24 hours, Laboratory strain; for assimilation by the microorganism (in words): Aspergillus niger
[4] = test system: Proteus mirabills; conditions: 10 mM, 24 hours; Clinical strain
[5] = test system: Bacillus cereus (first entry); conditions: 10 mM, 24 hours; first Bacillus cereus line (Table 1 order: Laboratory strain)
[6] = test system: Vibrio cholerae; conditions: 10 mM, 24 hours; CIP 104151
[7] = test system: Listeria monocytogenes 1/2; conditions: for labeling (fluorescence, metabolic incorporation of the chemical reporter): 10 mM, 24 hours, CIP 82.110pT; for assimilation by the microorganism (in words): Listeria monocytogenes
[8] = test system: Klebsiella pneumoniae (first entry); conditions: 10 mM, 24 hours; first Klebsiella pneumoniae line (Table 1 order: CIP 101114)
[9] = test system: Bacillus cereus (second entry); conditions: 10 mM, 24 hours; second Bacillus cereus line (Table 1 order: CIP 66.24T)
[10] = test system: Serratia marcescens (second entry); conditions: 10 mM, 24 hours; second Serratia marcescens line (Table 1 order: Clinical strain)
[11] = test system: Bacillus subtilis; conditions: for labeling (fluorescence, metabolic incorporation of the chemical reporter): 10 mM, 24 hours, Laboratory strain; for assimilation by the microorganism (in words): Bacillus subtilis
[12] = test system: Staphylococcus aureus aureus; conditions: for labeling (fluorescence, metabolic incorporation of the chemical reporter): 10 mM, 24 hours, IP 53-156; for assimilation by the microorganism (in words): Staphylococcus aureus aureus
[13] = test system: Micrococcus luteus; conditions: for labeling (fluorescence, metabolic incorporation of the chemical reporter): 10 mM, 24 hours, Laboratory strain; for assimilation by the microorganism (in words): Micrococcus luteus
[14] = test system: bacteria and Fungi as well as amoebas; experiment: Labeling of living microorganisms, overall statement on all tested strains; conditions: broad range of bacteria and Fungi as well as amoebas
[15] = test system: Salmonella typhimurium 12023; conditions: 10 mM, 24 hours; Laboratory strain
[16] = test system: Geotrichum candidum; conditions: for labeling (fluorescence, metabolic incorporation of the chemical reporter): 10 mM, 24 hours, CNCM 1447-83; for assimilation by the microorganism (in words): Geotrichum candidum
[17] = test system: Candida albicans; conditions: for labeling (fluorescence, metabolic incorporation of the chemical reporter): 10 mM, 24 hours, Laboratory strain; for assimilation by the microorganism (in words): Candida albicans
[18] = test system: Bacillus cereus paris; conditions: 10 mM, 24 hours; Laboratory strain
[19] = test system: Legionella pneumophila sg1 Paris; conditions: 10 mM, 24 hours; CIP 33152
[20] = test system: Fusarium; conditions: for labeling (fluorescence, metabolic incorporation of the chemical reporter): 10 mM, 24 hours, CNCM 1149-76; for assimilation by the microorganism (in words): Fusarium
[21] = test system: Acanthamoebae castellanii; conditions: for labeling (fluorescence, metabolic incorporation of the chemical reporter): 10 mM, 24 hours, ATCC 30234; for assimilation by the microorganism (in words): Acanthamoebae castellanii
[22] = test system: Klebsiella pneumoniae (second entry); conditions: 10 mM, 24 hours; second Klebsiella pneumoniae line (Table 1 order: Clinical strain)
[23] = test system: Staphylococcus saprophyticus; conditions: 10 mM, 24 hours; Clinical strain
[24] = test system: Cronobacter sakazakii; conditions: 10 mM, 24 hours; CIP 103183T
[25] = test system: Providencia stuartii; conditions: 10 mM, 24 hours; Clinical strain
[26] = test system: Stenotrophomonas maltophilia; conditions: 10 mM, 24 hours; Clinical strain
[27] = test system: Acinetobacter baumannii; conditions: 10 mM, 24 hours; ATCC 17978
[28] = test system: Escherichia coli O86; conditions: 10 mM, 24 hours; Laboratory strain
[29] = test system: Staphylococcus aureus; conditions: for labeling (fluorescence, metabolic incorporation of the chemical reporter): 10 mM, 24 hours, Clinical strain; for assimilation by the microorganism (in words): Staphylococcus aureus
[30] = test system: Legionella pneumophila sg6; conditions: 10 mM, 24 hours; LG 0846 3022
[31] = test system: Serratia marcescens (first entry); conditions: 10 mM, 24 hours; first Serratia marcescens line (Table 1 order: CIP 102446)
[32] = test system: Streptococcus agalactiae; conditions: 10 mM, 24 hours; Clinical strain
[33] = test system: Staphylococcus epidermis; conditions: for labeling (fluorescence, metabolic incorporation of the chemical reporter): 10 mM, 24 hours, Laboratory strain
[34] = test system: Escherichia coli K12; conditions: 10 mM, 24 hours; MG1655
[35] = test system: Pseudomonas fluorescens Paris; conditions: 10 mM, 24 hours; Laboratory strain
[36] = test system: Enterococcus durans; conditions: 10 mM, 24 hours; Laboratory strain
[37] = test system: Enterococcus faecalis; conditions: for labeling (fluorescence, metabolic incorporation of the chemical reporter): 10 mM, 24 hours, Laboratory strain; for assimilation by the microorganism (in words): Enterococcus faecalis

`[N-]=[N+]=NC[C@H]1OC(O)[C@@H](O)[C@@H]1O` (stereo partly drawn) [Ara-N3, 5-Azido-5-deoxy-D-arabinofuranose] was tested, and the “labeling (fluorescence, metabolic incorporation of the chemical reporter)” value [1] was “+”, the “labeling (fluorescence, metabolic incorporation of the chemical reporter)” value [2] was “+” and the “assimilation by the microorganism (in words)” value (“assimilation” below) [2] was “assimilated”. The “labeling (fluorescence, metabolic incorporation of the chemical reporter)” value [3] was “+”, the “assimilation” value [3] was “assimilated” and the “labeling (fluorescence, metabolic incorporation of the chemical reporter)” value [4] was “+”. The “labeling (fluorescence, metabolic incorporation of the chemical reporter)” value [5] was “+”, the “labeling (fluorescence, metabolic incorporation of the chemical reporter)” value [6] was “+” and the “labeling (fluorescence, metabolic incorporation of the chemical reporter)” value [7] was “+”. The “assimilation” value [7] was “assimilated”, the “labeling (fluorescence, metabolic incorporation of the chemical reporter)” value [8] was “+” and the “labeling (fluorescence, metabolic incorporation of the chemical reporter)” value [9] was “+”. The “labeling (fluorescence, metabolic incorporation of the chemical reporter)” value [10] was “+”, the “labeling (fluorescence, metabolic incorporation of the chemical reporter)” value [11] was “+” and the “assimilation” value [11] was “assimilated”. The “labeling (fluorescence, metabolic incorporation of the chemical reporter)” value [12] was “+”, the “assimilation” value [12] was “assimilated” and the “labeling (fluorescence, metabolic incorporation of the chemical reporter)” value [13] was “+”. For the same molecule, the “assimilation” value [13] was “assimilated”, the “labeling of all tested microorganisms (in words)” value [14] was “all tested microorganisms were labeled” and the “labeling (fluorescence, metabolic incorporation of the chemical reporter)” value [15] was “+”. The “labeling (fluorescence, metabolic incorporation of the chemical reporter)” value [16] was “+”, the “assimilation” value [16] was “assimilated” and the “labeling (fluorescence, metabolic incorporation of the chemical reporter)” value [17] was “+”. For the same molecule, the “assimilation” value [17] was “assimilated”, the “labeling (fluorescence, metabolic incorporation of the chemical reporter)” value [18] was “+” and the “labeling (fluorescence, metabolic incorporation of the chemical reporter)” value [19] was “+”. For the same molecule, the “labeling (fluorescence, metabolic incorporation of the chemical reporter)” value [20] was “+”, the “assimilation” value [20] was “assimilated” and the “labeling (fluorescence, metabolic incorporation of the chemical reporter)” value [21] was “+”. The “assimilation” value [21] was “assimilated”, the “labeling (fluorescence, metabolic incorporation of the chemical reporter)” value [22] was “+” and the “labeling (fluorescence, metabolic incorporation of the chemical reporter)” value [23] was “+”. For the same molecule, the “labeling (fluorescence, metabolic incorporation of the chemical reporter)” value [24] was “+”, the “labeling (fluorescence, metabolic incorporation of the chemical reporter)” value [25] was “+” and the “labeling (fluorescence, metabolic incorporation of the chemical reporter)” value [26] was “+”. For the same molecule, the “labeling (fluorescence, metabolic incorporation of the chemical reporter)” value [27] was “+”, the “labeling (fluorescence, metabolic incorporation of the chemical reporter)” value [28] was “+” and the “labeling (fluorescence, metabolic incorporation of the chemical reporter)” value [29] was “+”. For the same molecule, the “assimilation” value [29] was “assimilated”, the “labeling (fluorescence, metabolic incorporation of the chemical reporter)” value [30] was “+” and the “labeling (fluorescence, metabolic incorporation of the chemical reporter)” value [31] was “+”. The “labeling (fluorescence, metabolic incorporation of the chemical reporter)” value [32] was “+”, the “labeling (fluorescence, metabolic incorporation of the chemical reporter)” value [33] was “+” and the “labeling (fluorescence, metabolic incorporation of the chemical reporter)” value [34] was “+”. The “labeling (fluorescence, metabolic incorporation of the chemical reporter)” value [35] was “+”, the “labeling (fluorescence, metabolic incorporation of the chemical reporter)” value [36] was “+” and the “labeling (fluorescence, metabolic incorporation of the chemical reporter)” value [37] was “+”. For the same molecule, the “assimilation” value [37] was “assimilated”.
In the case of `[N-]=[N+]=NC[C@@H](O)C1OC(O)(C(=O)O)CC(O)[C@H]1O` (some centres unmarked) [Kdo-N3, reference compound], the “labeling (fluorescence, metabolic incorporation of the chemical reporter)” value [1] is reported as “+”, the “labeling (fluorescence, metabolic incorporation of the chemical reporter)” value [2] is reported as “−” and the “assimilation” value [2] is reported as “did not assimilate”. For the same molecule, the “labeling (fluorescence, metabolic incorporation of the chemical reporter)” value [3] was “−”, the “assimilation” value [3] was “did not assimilate” and the “labeling (fluorescence, metabolic incorporation of the chemical reporter)” value [4] was “+”. The “labeling (fluorescence, metabolic incorporation of the chemical reporter)” value [6] was “+”, the “labeling (fluorescence, metabolic incorporation of the chemical reporter)” value [7] was “−” and the “assimilation” value [7] was “did not assimilate”. The “labeling (fluorescence, metabolic incorporation of the chemical reporter)” value [8] was “+”, the “labeling (fluorescence, metabolic incorporation of the chemical reporter)” value [10] was “+” and the “labeling (fluorescence, metabolic incorporation of the chemical reporter)” value [11] was “−”. The “assimilation” value [11] was “did not assimilate”, the “labeling (fluorescence, metabolic incorporation of the chemical reporter)” value [12] was “−” and the “assimilation” value [12] was “did not assimilate”. The “labeling (fluorescence, metabolic incorporation of the chemical reporter)” value [13] was “−”, the “assimilation” value [13] was “did not assimilate” and the “labeling (fluorescence, metabolic incorporation of the chemical reporter)” value [15] was “+”. For the same molecule, the “labeling (fluorescence, metabolic incorporation of the chemical reporter)” value [16] was “−”, the “assimilation” value [16] was “did not assimilate” and the “labeling (fluorescence, metabolic incorporation of the chemical reporter)” value [17] was “−”. The “assimilation” value [17] was “did not assimilate”, the “labeling (fluorescence, metabolic incorporation of the chemical reporter)” value [19] was “+” and the “labeling (fluorescence, metabolic incorporation of the chemical reporter)” value [20] was “−”. For the same molecule, the “assimilation” value [20] was “did not assimilate”, the “labeling (fluorescence, metabolic incorporation of the chemical reporter)” value [21] was “−” and the “assimilation” value [21] was “did not assimilate”. The “labeling (fluorescence, metabolic incorporation of the chemical reporter)” value [22] was “+”, the “labeling (fluorescence, metabolic incorporation of the chemical reporter)” value [24] was “+” and the “labeling (fluorescence, metabolic incorporation of the chemical reporter)” value [25] was “+”. For the same molecule, the “labeling (fluorescence, metabolic incorporation of the chemical reporter)” value [26] was “+”, the “labeling (fluorescence, metabolic incorporation of the chemical reporter)” value [27] was “+” and the “labeling (fluorescence, metabolic incorporation of the chemical reporter)” value [28] was “+”. The “labeling (fluorescence, metabolic incorporation of the chemical reporter)” value [29] was “−”, the “assimilation” value [29] was “did not assimilate” and the “labeling (fluorescence, metabolic incorporation of the chemical reporter)” value [30] was “+”. The “labeling (fluorescence, metabolic incorporation of the chemical reporter)” value [31] was “+”, the “labeling (fluorescence, metabolic incorporation of the chemical reporter)” value [33] was “−” and the “assimilation” value ([33]; Staphylococcus epidermis) was “did not assimilate”. The “labeling (fluorescence, metabolic incorporation of the chemical reporter)” value [34] was “+”, the “labeling (fluorescence, metabolic incorporation of the chemical reporter)” value [35] was “+” and the “labeling (fluorescence, metabolic incorporation of the chemical reporter)” value [37] was “−”. The “assimilation” value [37] was “did not assimilate”.
